From ChEMBL document CHEMBL5661943, “ASAP - In vitro antiviral effect” (2024) come the findings set out here.

One assay has as its system Zika virus. Briefly: Functional CPE-based assay to measure dose dependent changes in antiviral-drug inhibitory efficacy against Zika virus MR766 in Vero E6 miRFP670 cells (cotreated with P-gp inhibitor, CP100356). Cells are treated with antiviral candidates that are serially diluted. EC50 is reported via analysis of MTS assay as a readout of CPE. The assay has been performed by KU Leuven. Format: organism-based, Chlorocebus sabaeus, Vero C1008. Conditions: Zika virus; for EC90: P-gp concentration 500 nM, P-gp inhibitor CP100356.

Another assay deals with dengue virus type 2. Briefly: Functional assay to measure dose dependent changes in antiviral-drug inhibitory efficacy against Dengue virus type 2 New Guinea C in Vero E6 miRFP670 cells (cotreated with P-gp inhibitor, CP100356). Cells are treated with antiviral candidates that are serially diluted, following infection, cells are fixed. EC50 is reported via analysis of fluorescence intensity using high-content imager. The …. Format: organism-based, Chlorocebus sabaeus, Vero C1008. The note with it: for EC90: P-gp concentration 500 nM, P-gp inhibitor CP100356.

Structures are written as SMILES.

Consider `O=C(O)Cc1c[nH]c2cc(-c3cc(Cl)cc(NC(=O)OCc4ccccc4)c3)ccc12`, for which the 50% effective concentration (EC50) was above 50 µM in the assay with Zika virus (Vero C1008) and 28.1 µM in the assay with dengue virus type 2 (Dengue virus, Vero C1008). Further, the EC90 in the assay on Zika virus (Vero C1008, Baseline response 0 %, Hill slope 0.295, Maximum measured 15.391 %, Maximum response 100 %, Minimum measured 1.73 %, R squared 0.19) was above 50 µM; in the assay with dengue virus type 2 (Dengue virus, Vero C1008, Baseline response 0 %, Hill slope -3.369, Maximum measured 96.537 %, Maximum response 100 %, Minimum measured 12.115 %, R squared 0.802), above 50 µM.
Take `O=C(Nc1cc(Cl)cc(-c2cnn(Cc3ccc(C(=O)O)cc3)c2)c1)OCc1ccccc1`: the EC50 in the assay with Zika virus (Vero C1008) is above 50 µM; in the assay on dengue virus type 2 (Dengue virus, Vero C1008), 25 µM. Further, the 90% effect concentration (EC90) is above 50 µM in the assay with Zika virus (Vero C1008, Baseline response 0 %, Hill slope 1.126, Maximum measured 43.56 %, Maximum response 100 %, Minimum measured -3.769 %, R squared 0.488) and 27.8 µM in the assay with dengue virus type 2 (Dengue virus, Vero C1008, Baseline response 0 %, Hill slope -21.178, Maximum measured 148.823 %, Maximum response 100 %, Minimum measured 10.822 %, R squared 0.564).
Turning to `FC(F)(F)Oc1cc(Cl)cc2c(Cc3ccc(-c4nnn[nH]4)cc3)c[nH]c12`, the EC50 in the assay on Zika virus (Vero C1008) was found to be 20.6 µM; in the assay with dengue virus type 2 (Dengue virus, Vero C1008), 11.9 µM. In addition, the EC90 in the assay with Zika virus (Vero C1008, Baseline response 0 %, Hill slope 5.381, Maximum measured 73.735 %, Maximum response 100 %, Minimum measured 0.486 %, R squared 0.994) was above 25 µM; in the assay on dengue virus type 2 (Dengue virus, Vero C1008, Baseline response 0 %, Hill slope -33.999, Maximum measured 142.465 %, Maximum response 100 %, Minimum measured 16.781 %, R squared 0.605), above 12.5 µM.
For the compound `Clc1cc(CNc2ccc3c(c2)CNC3)c2cn[nH]c2c1`, the EC50 in the assay with Zika virus (Vero C1008) was 17.9 µM; with dengue virus type 2 (Dengue virus, Vero C1008), 3.18 µM. The EC90 in the assay with Zika virus (Vero C1008, Baseline response 0 %, Hill slope 3.353, Maximum measured 76.866 %, Maximum response 100 %, Minimum measured 0.884 %, R squared 0.96) is above 25 µM; in the assay with dengue virus type 2 (Dengue virus, Vero C1008, Baseline response 0 %, Hill slope -0.438, Maximum measured 74.942 %, Maximum response 100 %, Minimum measured 39.794 %, R squared 0.558) it was above 12.5 µM.
In the case of `COC(=O)c1cc(Br)cc2c(Cc3ccc(-c4nnn[nH]4)cc3)c[nH]c12`, the concentration for a half-maximal effect (EC50) was above 50 µM in the assay with Zika virus (Vero C1008) and above 50 µM in the assay on dengue virus type 2 (Dengue virus, Vero C1008). Also, the EC90 in the assay on Zika virus (Vero C1008, Baseline response 0 %, Hill slope 0.557, Maximum measured 36.25 %, Maximum response 100 %, Minimum measured -2.518 %, R squared 0.117) is above 50 µM; in the assay on dengue virus type 2 (Dengue virus, Vero C1008, Maximum measured 157.502 %, Minimum measured 51.504 %), above 50 µM.
Take `CN(c1ccc2c(c1)CNC2)[C@H](C(=O)NCC(F)F)c1cc(Cl)cc(C2CC2)c1`: the EC50 was 0.859 µM in the assay with Zika virus (Vero C1008) and above 3.12 µM in the assay on dengue virus type 2 (Dengue virus, Vero C1008). Further, the EC90 is 1.14 µM in the assay with Zika virus (Vero C1008, Baseline response 0 %, EC90 CI (lower) 0.179 uM, EC90 CI (upper) 7.248 uM, Hill slope 7.833, Maximum measured 121.708 %, Maximum response 100 %, Minimum measured 8.623 %, R squared 0.915) and above 3.12 µM with dengue virus type 2 (Dengue virus, Vero C1008, Baseline response 0 %, Hill slope -0.632, Maximum measured 86.584 %, Maximum response 100 %, Minimum measured 48.476 %, R squared 0.311).
With `O=C(Nc1ccc2c(c1)CNC2)c1cc(Cl)cc2[nH]c(-c3c[nH]c(=O)c(Br)c3)nc12`, the 50% effective concentration (EC50) in the assay on Zika virus (Vero C1008) was above 50 µM; in the assay on dengue virus type 2 (Dengue virus, Vero C1008) it was above 50 µM. Further, the EC90 was above 50 µM in the assay with Zika virus (Vero C1008, Baseline response 0 %, Hill slope 0.525, Maximum measured 33.05 %, Maximum response 100 %, Minimum measured 2.151 %, R squared 0.865) and above 50 µM in the assay with dengue virus type 2 (Dengue virus, Vero C1008, Maximum measured 259.566 %, Minimum measured 84.768 %).
As to `O=C(NCC(F)F)[C@H](Nc1cc2c(cc1Br)CNC2)c1cc(Cl)cc(C2CC2)c1`, the EC50 with Zika virus (Vero C1008) is 0.807 µM; in the assay on dengue virus type 2 (Dengue virus, Vero C1008) it was above 50 µM. Also, the 90% effect concentration (EC90) in the assay on Zika virus (Vero C1008, Baseline response 0 %, Hill slope 18.882, Maximum measured 131.702 %, Maximum response 100 %, Minimum measured 12.911 %, R squared 0.859) is 0.907 µM; with dengue virus type 2 (Dengue virus, Vero C1008, Maximum measured 177.59 %, Minimum measured 74.788 %), above 50 µM.
As for `O=C(Nc1ccc2c(c1)CN[C@H]2CC1CC1)c1cc(F)cc2[nH]ncc12`, the concentration giving a half-maximal response (EC50) with Zika virus (Vero C1008) came out at 1.64 µM; in the assay with dengue virus type 2 (Dengue virus, Vero C1008), 1.03 µM. In addition, in the assay with Zika virus (Vero C1008, Baseline response 0 %, Hill slope 24.148, Maximum measured 124.993 %, Maximum response 100 %, Minimum measured 2.983 %, R squared 0.936), the EC90 was determined as 1.79 µM.
Turning to `O=C(Nc1cc(Cl)cc(-c2ccc3[nH]c(C(=O)O)cc3c2)c1)OCc1ccccc1`, the EC50 is above 25 µM in the assay on Zika virus (Vero C1008); 24.9 µM in the assay on dengue virus type 2 (Dengue virus, Vero C1008); above 12.5 µM in the assay with dengue virus type 2 (vero c1008). The EC90 in the assay with Zika virus (Vero C1008, Baseline response 0 %, Hill slope 14.672, Maximum measured 32.342 %, Maximum response 100 %, Minimum measured -3.566 %, R squared 0.926) is above 25 µM; with dengue virus type 2 (Baseline response 0 %, EC90 CI (lower) 8.977 uM, EC90 CI (upper) 21.139 uM, Hill slope -3.716, Maximum measured 111.991 %, Maximum response 100 %, Minimum measured 0.586 %, R squared 0.931), 45 µM; in the assay with dengue virus type 2 (Baseline response 0 %, Hill slope -1.036, Maximum measured 105.577 %, Maximum response 100 %, Minimum measured 51.847 %, R squared 0.535), above 12.5 µM.
Consider `CC(C)(C)OC(=O)N1Cc2ccc(N[C@H](C(=O)O)c3cc(Cl)cc4[nH]ncc34)cc2C1`, for which the EC50 in the assay with Zika virus (Vero C1008) was above 50 µM; in the assay with dengue virus type 2 (Dengue virus, Vero C1008) it was above 50 µM. Besides, the EC90 in the assay on Zika virus (Vero C1008, Baseline response 0 %, Hill slope -0.446, Maximum measured 2.879 %, Maximum response 100 %, Minimum measured -1.465 %, R squared 0.442) is above 50 µM; in the assay with dengue virus type 2 (Dengue virus, Vero C1008, Maximum measured 176.94 %, Minimum measured 116.898 %), above 50 µM.
As for `N#CCc1cc(NC(=O)c2cc(F)cc3[nH]ncc23)cc2c1CNC2`, the EC50 with Zika virus (Vero C1008) was 41.5 µM; in the assay with dengue virus type 2 (Dengue virus, Vero C1008) it was above 50 µM. Also, the concentration for an effect of 90% (EC90) with Zika virus (Vero C1008, Baseline response 0 %, Hill slope 1.989, Maximum measured 59.393 %, Maximum response 100 %, Minimum measured -2.191 %, R squared 0.98) was above 50 µM; in the assay on dengue virus type 2 (Dengue virus, Vero C1008, Maximum measured 146.108 %, Minimum measured 103.208 %), above 50 µM.
As for `O=C(NCC(F)F)[C@H](Nc1cnc2c(c1)CNC2)c1cc(Cl)cc(C2CC2)c1`, the EC50 is 0.828 µM with Zika virus (Vero C1008) and above 50 µM with dengue virus type 2 (Dengue virus, Vero C1008). Moreover, the 90% effect concentration (EC90) was 1.76 µM with Zika virus (Vero C1008, Baseline response 0 %, EC90 CI (lower) 1.299 uM, EC90 CI (upper) 2.383 uM, Hill slope 2.915, Maximum measured 110.454 %, Maximum response 100 %, Minimum measured 12.588 %, R squared 0.958) and above 50 µM in the assay on dengue virus type 2 (Dengue virus, Vero C1008, Maximum measured 147.541 %, Minimum measured 99.767 %).
On to `O=C(Nc1ccc2c(c1)CNC2)c1cc(Br)cc2c1nc1n2CCCC1`, for which the concentration for a half-maximal effect (EC50) is above 50 µM in the assay on Zika virus (Vero C1008) and above 50 µM in the assay on dengue virus type 2 (Dengue virus, Vero C1008). The concentration for an effect of 90% (EC90) in the assay with Zika virus (Vero C1008, Maximum measured -3.355 %, Minimum measured -6.068 %) was above 50 µM; with dengue virus type 2 (Dengue virus, Vero C1008, Maximum measured 143.517 %, Minimum measured 80.126 %) it was above 50 µM.
Consider `C[C@H]1C(=O)Nc2ccc(C(=O)Nc3ccc4c(c3)CNC4)cc21`, for which the concentration giving a half-maximal response (EC50) in the assay on Zika virus (Vero C1008) was above 50 µM; in the assay with dengue virus type 2 (Dengue virus, Vero C1008), above 50 µM. For the same compound, the EC90 in the assay with Zika virus (Vero C1008, Maximum measured 0.465 %, Minimum measured -1.56 %) was above 50 µM; with dengue virus type 2 (Dengue virus, Vero C1008, Maximum measured 179.475 %, Minimum measured 83.637 %), above 50 µM.
